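Cells were grown in 96-well plates and exposed to each compound for 48 hours at five concentrations; endpoints were interpolated linearly between bracketing concentrations, or set to the highest concentration if not reached. GI50 = concentration required for 50% inhibition of growth.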 Activity calls are given as the source filed them. No stated cut-off is given here; in the data, active = GI50 up to about 1.1 µM and inactive = higher.
Experiments:
Assay in all cases: inhibition of tumour cell growth, NCI panel, 48 h
SNB-78 = tested on: SNB-78
XF498 = tested on: XF498
DMS-273 = tested on: DMS-273
M19-MEL = tested on: M19-MEL
DMS-114 = tested on: DMS-114
LXFL 529 = tested on: LXFL 529
RXF 631 = tested on: RXF 631
DLD-1 = tested on: DLD-1
HOP-18 = tested on: HOP-18

Measured: GI50

CC(C)N1CCOC(c2ccc(O)c(O)c2)C1 (stereo unspecified)
inactive: SNB-78 > 100 µM | XF498 > 100 µM | DMS-273 > 100 µM | M19-MEL > 100 µM | DMS-114 > 100 µM | LXFL 529 > 100 µM | RXF 631 > 100 µM | DLD-1 > 100 µM

CN(C(=O)C12C3C4C1C1C2C3C41I)C(C)(C)C (stereo unspecified)
inactive: SNB-78 > 100 µM | XF498 > 61.9 µM | DMS-273 47 µM | M19-MEL > 100 µM | DMS-114 > 59 µM | LXFL 529 > 87.1 µM | RXF 631 53.2 µM | HOP-18 > 100 µM | DLD-1 > 100 µM

N#CC(C(=O)/C(=N/NC(=O)c1ccccc1O)C(C#N)c1ccccc1)c1ccccc1 (stereo unspecified)
inactive: SNB-78 > 100 µM | XF498 > 100 µM | DMS-273 > 100 µM | M19-MEL > 100 µM | DMS-114 > 100 µM | LXFL 529 > 100 µM | RXF 631 > 100 µM | HOP-18 > 100 µM | DLD-1 > 100 µM

O=c1[nH]cnc2c(COCCO)c[nH]c12
inactive: SNB-78 > 100 µM | XF498 > 100 µM | DMS-273 > 100 µM | M19-MEL > 100 µM | DMS-114 > 100 µM | LXFL 529 > 100 µM | RXF 631 > 100 µM | HOP-18 > 100 µM | DLD-1 > 100 µM

COC(=O)C(C(=O)Cc1ccccc1[N+](=O)[O-])C(=O)OC
inactive: XF498 > 100 µM | DMS-273 > 100 µM | M19-MEL > 100 µM | LXFL 529 > 100 µM | RXF 631 > 100 µM | HOP-18 > 100 µM | DLD-1 > 100 µM

CCOC(=O)C1(C(=O)OCC)C(C(C)(C)C)=C(C)c2ccccc21
inactive: XF498 12.6 µM | DMS-273 12.1 µM | M19-MEL 14.1 µM | DMS-114 11.5 µM | LXFL 529 11.6 µM | RXF 631 13.7 µM | HOP-18 29.1 µM | DLD-1 11.8 µM

C=C1CC(CC(=O)C(C)CC2CC(=C)C(=O)O2)OC1=O (stereo unspecified)
inactive: SNB-78 17.3 µM | XF498 23.8 µM | DMS-273 23.2 µM | M19-MEL 16.3 µM | DMS-114 21.6 µM | LXFL 529 12.8 µM | RXF 631 46.3 µM | HOP-18 22.4 µM | DLD-1 14.4 µM

O=C1C[C@H]2CCCN2[C@@H](c2ccccc2)C1
inactive: SNB-78 > 100 µM | XF498 > 100 µM | DMS-273 > 100 µM | M19-MEL > 100 µM | LXFL 529 > 100 µM | RXF 631 > 100 µM | HOP-18 > 100 µM

Source: ChEMBL document CHEMBL1201862, “PubChem BioAssay data set” (2004)
